Results from paper PMC4997316, “A ruthenium polypyridyl intercalator stalls DNA replication forks, radiosensitizes human cancer cells and is enhanced by Chk1 inhibition” (Scientific Reports, 2016).

Assays:
Calf thymus DNA = experiment: relative viscosity of DNA on addition of complex; format: binding; conditions: calf thymus DNA 4.19 × 10^−5 M, r 0-0.3
Protocol: The novel ruthenium(II) polypyridyl complexes [Ru(dppz)2(PIP)]^2+, 1, and [Ru(dppz)2(p-HPIP)]^2+, 2, (dppz = dipyrido[3,2-a:2′,3′-c]phenazine, PIP = (2-(phenyl)imidazo[4,5-f][1,10]phenanthroline) and p-HPIP ((2-(4-hydroxyphenyl)imidazo[4,5-f][1,10]phenanthroline)) were prepared by modification of reported synthetic pathways[17][30][31] and characterised by standard spectroscopic and analytical techniques (Figs S1–7 in the Supplementary Information). Evidence of a reversible binding interaction with DNA is provided by evidence of hypochromicity of the absorption spectra of 1 and 2 with increasing concentrations of DNA (Fig. S8). […] To investigate specific binding mode, relative viscosities of DNA with increasing concentrations of each complex were determined, where an increase in relative viscosity corresponds to the unwinding and lengthening of the DNA strand as a result of intercalation. […]
Calf thymus DNA, CT-DNA, (Sigma) was dissolved in NaCl (25 mm) and Tris (5 mm, pH 7.0) buffer and concentrations of determined spectroscopically (ε = 6600 dm^3 mol^−1cm^−1 at 260 nm). […] An equilibration time of 20 min was allowed before the flow times were recorded by Cannon–Manning semimicro viscometer (size 50) immersed in a thermostat bath (27 °C). Times were recorded in triplicate to within 0.1 second of each other and averaged values obtained.

[1] = system: primary human foreskin fibroblasts (HFF); experiment: MTT proliferation assay, HFF; format: cell-based; conditions: 24 h proliferation assay
Protocol: (§1) (LC3 = Microtubule-associated protein light chain 3) (Fig. 2b, bottom).
(§2) Cells were seeded in 96 well plates at 20,000 cells/well, allowed to proliferate for 24 h before treatment as described in the main text. 0.5 mg ml^−1 MTT (thiazolyl blue tetrazolium bromide) dissolved in serum-free media was added for 60 minutes and the formazan product eluted using acidified isopropanol. The absorbance at 540 nm was quantified by plate reader (reference wavelength 650 nm). The metabolic activity of the cell population was determined as a percentage of a negative (solvent) control.

γH2AX in HeLa cells = experiment: γH2AX expression after irradiation (Western blot densitometry); format: cell-based, human; conditions: 40 μM 20 h then 6 Gy IR, harvested 1 h after irradiation
Protocol: Chemotherapeutics are often used in combination with external beam ionising radiation in the treatment of cancers and many drugs that inhibit DNA replication are potent radiosensitizers. To examine the possibility that 1 may function as a radiosensitizer, HeLa cells were pre-treated with 1 for 20 h before irradiation (0–6 Gy ionising irradiation (IR); ^137Cs-γ-rays; dose rate = 0.809 Gy min^−1). After further incubation for 4 h with the complex, the relative impact on cell viability was assessed by clonogenic survival. Complex 2, which achieves its impact on cell proliferation through non-DNA damage-based autophagy, was included in parallel for comparison. […] The formation of γH2AX is an early response to IR-induced DSB generation and may provide an indication of DNA damage levels. […]
Figure 6 [Ru(dppz)2(PIP)]^2+ sensitises human cancer cells to external beam ionising radiation. […] Survival fraction (S. F.) as a result of each treatment was determined by clonogenic assay and is presented as the mean +/− SD of two independent experiments where each experiment was performed in triplicate. […] Cells were harvested 1 h after irradiation and lysates analysed by Western blotting (left). γH2AX levels were measured by densitometry relative to β-actin loading controls and normalised to DMSO + 6 Gy data (right). […]

[2] = system: HeLa cervical cancer cells; experiment: MTT proliferation assay, HeLa; format: cell-based, human; conditions: 24 h proliferation assay
Protocol: as §1, §2

HeLa cells = experiment: Trypan Blue exclusion assay; format: cell-based, human; conditions: 40 μM
Protocol: HeLa cells were seeded in 6 well plates at 100,000 cells/well and allowed to proliferate for 24 h. Cell cultures were treated as stated, media containing detached/dead cells were removed and retained, adherent cells washed with PBS and detached with Trypsin. Adherent and detached cells for each sample were combined, concentrated via centrifugation and re-suspended in 0.5 ml PBS containing 0.04% Trypan Blue solution. Trypan Blue-negative and Trypan Blue-positive cells were counted by haemocytometer. A minimum of 200 cells were counted for each sample.

| Compound | relative viscosity of DNA (Calf thymus DNA) | IC50 [1] | γH2AX levels compared to IR alone (γH2AX in HeLa cells) | IC50 [2] | HeLa cell growth (viable cell numbers) (HeLa cells; 24–72 h treatment) | cytotoxicity (HeLa cells; HeLa, up to 72 h, % total cells, read-out: non-viable (Trypan Blue positive) populations) |
| --- | --- | --- | --- | --- | --- | --- |
| [Ru+2].c1ccc(-c2nc3c4cccnc4c4ncccc4c3[nH]2)cc1.c1ccc2nc3c4cccnc4c4ncccc4c3nc2c1.c1ccc2nc3c4cccnc4c4ncccc4c3nc2c1 [Complex 1, [Ru(dppz)2(PIP)]^2+] | increase relative viscosity of DNA | > 100 µM | approximately two-fold greater | 38 µM | completely halts HeLa cell growth | < 20% |
| Oc1ccc(-c2nc3c4cccnc4c4ncccc4c3[nH]2)cc1.[Ru+2].c1ccc2nc3c4cccnc4c4ncccc4c3nc2c1.c1ccc2nc3c4cccnc4c4ncccc4c3nc2c1 [Complex 2, [Ru(dppz)2(p-HPIP)]^2+] | increase relative viscosity of DNA | > 100 µM | no such increase in γH2AX expression | 14 µM |  |  |
